What was measured:
[1] = Antiproliferative activity against mouse P388 cells assessed as reduction in cell viability measured after 72 hrs; format: functional, cell-based; conditions: time 72 hrs
HL-60 = assay: Antiproliferative activity against human HL-60 cells assessed as reduction in cell viability measured after 72 hrs; format: functional, cell-based; conditions: HL-60, time 72 hrs
P388/ADR = assay: Antiproliferative activity against mouse P388/ADR cells assessed as reduction in cell viability measured after 72 hrs; format: functional, cell-based; conditions: time 72 hrs
A549 = assay: Antiproliferative activity against human A549 cells; format: functional, cell-based
K562 = assay: Antiproliferative activity against human K562 cells; format: functional, cell-based
PC-3 = assay: Antiproliferative activity against human PC-3 cells; format: functional, cell-based
A-431 = assay: Antiproliferative activity against human A-431 cells; format: functional, cell-based
MDA-MB-231 [2] = assay: Antiproliferative activity against human MDA-MB-231 cells; format: functional, cell-based; conditions: Homo sapiens, MDA-MB-231
COLO 205 = assay: Antiproliferative activity against human COLO 205 cells; format: functional, cell-based
HEK293 = assay: Antiproliferative activity against human HEK293 cells; format: functional, cell-based
[3] = Antiproliferative activity against human MRC5 cells assessed as reduction in cell viability; format: toxicity, cell-based
HCT-116 = assay: Antiproliferative activity against human HCT-116 cells assessed as reduction in cell viability; format: functional, cell-based; conditions: Homo sapiens, HCT-116
MDA-MB-231 [4] = assay: Antiproliferative activity against human MDA-MB-231 cells assessed as reduction in cell viability; format: functional, cell-based
HT-29 = assay: Antiproliferative activity against human HT-29 cells assessed as reduction in cell viability; format: functional, cell-based
KB = assay: Antiproliferative activity against human KB cells; format: functional, cell-based
HepG2 = assay: Antiproliferative activity against human HepG2 cells; format: functional, cell-based
[5] = Antiproliferative activity against human U-87 MG cells; format: functional, cell-based, U-87MG ATCC
NCI-H460 = assay: Antiproliferative activity against human NCI-H460 cells; format: functional, cell-based

`CC(C)N1CCN(C(=O)CCC(=O)O[C@@H]2O[C@@H]3O[C@]4(C)CC[C@H]5[C@H](C)CC[C@@H]([C@H]2C)[C@@]35OO4)CC1` gave a GI50 [1] of 0.231 µM, a GI50 (HL-60) of 0.231 µM and a GI50 (P388/ADR) of 0.231 µM.
For `C[C@H]1[C@@H](OCCn2cc(COc3cccc(O)c3)nn2)O[C@@H]2O[C@@]3(C)CC[C@H]4[C@H](C)CC[C@@H]1[C@@]24OO3`, the IC50 (A549) was 18 µM, the IC50 (K562) was 18 µM and the IC50 (PC-3) was 18 µM. It also gave an IC50 (A-431) of 18 µM, an IC50 (MDA-MB-231 [2]) of 18 µM and an IC50 (COLO 205) of 18 µM. For the same compound, the IC50 (HEK293) was 18 µM.
`C[C@H]1[C@@H](Oc2ccc(C(=O)N3CCN(Cc4ccccc4)CC3)cc2)O[C@@H]2O[C@@]3(C)CC[C@H]4[C@H](C)CC[C@@H]1[C@@]24OO3` gave a GI50 [1] of 0.0221 µM and a GI50 (P388/ADR) of 0.0221 µM.
Work on `Cc1c(C)c2cccc(OCc3cn(CCCO[C@@H]4O[C@@H]5O[C@@]6(C)CC[C@H]7[C@H](C)CC[C@@H]([C@H]4C)[C@@]57OO6)nn3)c2oc1=O` yielded an IC50 [3] of 0.43 µM, an IC50 (HCT-116) of 0.43 µM and an IC50 (MDA-MB-231 [4]) of 0.43 µM. For the same compound, the IC50 (HT-29) was 0.43 µM.
`CC1=CN([C@H]2C[C@H](n3cc(-c4cccc(NC(=O)CCC(=O)O[C@@H]5O[C@@H]6O[C@@]7(C)CC[C@H]8[C@H](C)CC[C@@H]([C@H]5C)[C@@]68OO7)c4)nn3)[C@@H](CO)O2)C(C)NC1=O` (stereo not given in full) showed an IC50 (KB) of 47.6 µM and an IC50 (HepG2) of 47.6 µM.
`Cc1cn([C@H]2C[C@H](n3cc(COC(=O)CCCC(=O)O[C@@H]4O[C@@H]5O[C@@]6(C)CC[C@H]7[C@H](C)CC[C@@H]([C@H]4C)[C@@]57OO6)nn3)[C@@H](CO)O2)c(=O)[nH]c1=O` gave an IC50 (KB) of 16.5 µM and an IC50 (HepG2) of 16.5 µM.
Work on `C[C@H]1[C@@H](OCC(O)Cn2cc(-c3cccc(N)c3)nn2)O[C@@H]2O[C@@]3(C)CC[C@H]4[C@H](C)CC[C@@H]1[C@@]24OO3` (stereo not given in full) yielded an IC50 (KB) of 12.5 µM and an IC50 (HepG2) of 32.9 µM.
In the case of `CCN1CCN(C(=O)CCC(=O)O[C@@H]2O[C@@H]3O[C@]4(C)CC[C@H]5[C@H](C)CC[C@@H]([C@H]2C)[C@@]35OO4)CC1`, the GI50 [1] is reported as 0.231 µM, the GI50 (HL-60) is reported as 0.231 µM and the GI50 (P388/ADR) is reported as 0.231 µM.
In the case of `Cc1c(C)c2cccc(OCc3cn(CCO[C@@H]4O[C@@H]5O[C@@]6(C)CC[C@H]7[C@H](C)CC[C@@H]([C@H]4C)[C@@]57OO6)nn3)c2oc1=O`, the IC50 [3] is reported as 0.43 µM, the IC50 (HCT-116) is reported as 0.43 µM and the IC50 (MDA-MB-231 [4]) is reported as 0.43 µM. It also gave an IC50 (HT-29) of 0.43 µM.
`Cc1cc(=O)oc2c(OCc3cn(CCCO[C@@H]4O[C@@H]5O[C@@]6(C)CC[C@H]7[C@H](C)CC[C@@H]([C@H]4C)[C@@]57OO6)nn3)cccc12` showed an IC50 [3] of 0.43 µM, an IC50 (HCT-116) of 0.43 µM and an IC50 (MDA-MB-231 [4]) of 0.43 µM. It also gave an IC50 (HT-29) of 0.43 µM.
With `Cc1c(Cl)c(=O)oc2c(OCc3cn(CCO[C@@H]4O[C@@H]5O[C@@]6(C)CC[C@H]7[C@H](C)CC[C@@H]([C@H]4C)[C@@]57OO6)nn3)cccc12` the IC50 [3] was 0.43 µM, the IC50 (HCT-116) was 0.43 µM and the IC50 (MDA-MB-231 [4]) was 0.43 µM. The IC50 (HT-29) was 0.43 µM.
With `Cc1cn([C@H]2C[C@H](n3cc(CNC(=O)CCCC(=O)O[C@@H]4O[C@@H]5O[C@@]6(C)CC[C@H]7[C@H](C)CC[C@@H]([C@H]4C)[C@@]57OO6)nn3)[C@@H](CO)O2)c(=O)[nH]c1=O` the IC50 (KB) was 47.6 µM and the IC50 (HepG2) was 47.6 µM.
For `C[C@H]1[C@@H](OCCn2cc(COc3ccc(C=O)c(O)c3)nn2)O[C@@H]2O[C@@]3(C)CC[C@H]4[C@H](C)CC[C@@H]1[C@@]24OO3`, the IC50 (A549) was 18 µM, the IC50 (K562) was 18 µM and the IC50 (PC-3) was 18 µM. The IC50 (A-431) was 18 µM, the IC50 (MDA-MB-231 [2]) was 18 µM and the IC50 (COLO 205) was 18 µM. For the same compound, the IC50 (HEK293) was 18 µM.
`Cc1cn(C2C[C@H](n3cc(COC(=O)CCC(=O)O[C@@H]4O[C@@H]5O[C@@]6(C)CC[C@H]7[C@H](C)CC[C@@H]([C@H]4C)[C@@]57OO6)nn3)[C@@H](CO)O2)c(=O)[nH]c1=O` (single isomer, unassigned) gave an IC50 (KB) of 16.5 µM and an IC50 (HepG2) of 16.5 µM.
With `COc1cccc2c1C(=O)c1c(O)c3c(c(O)c1C2=O)C[C@@](O)(C(=O)CO)C[C@@H]3O[C@H]1C[C@H](N)[C@H](O)[C@H](C)O1` [DOXORUBICIN] the IC50 (HCT-116) was 0.05 µM, the IC50 (MDA-MB-231 [4]) was 0.05 µM and the IC50 (HT-29) was 0.05 µM. The GI50 [1] was 0.0087 µM, the GI50 (HL-60) was 0.0087 µM and the GI50 (P388/ADR) was 3.73 µM. The IC50 (K562) was 1.43 µM, the IC50 (PC-3) was 1.43 µM and the IC50 (A-431) was 1.43 µM. It also gave an IC50 (MDA-MB-231 [2]) of 1.43 µM, an IC50 (COLO 205) of 1.43 µM and an IC50 (HEK293) of 1.43 µM.
With `Cc1ccc(F)c(NS(=O)(=O)/C=C/c2cccc(OCCOC3O[C@@H]4O[C@@]5(C)CC[C@H]6[C@H](C)CC[C@@H]([C@H]3C)[C@@]46OO5)c2)c1` (stereo not given in full) the IC50 (HT-29) was 0.05 µM, the IC50 (A549) was 0.05 µM and the IC50 (MDA-MB-231 [2]) was 0.05 µM. The IC50 [5] was 0.05 µM and the IC50 (NCI-H460) was 0.05 µM.
